In a melting point compilation (Tetko et al.; mined from patent text by program, amines drawn as free bases though some values may be those of a salt):

SMILES	melting point [°C]
COc1cc2ncnc(Oc3cccc(Cl)c3)c2cc1OC	152 to 153
COC(=O)CCCc1cc2cc(Cl)ccc2n1S(=O)(=O)c1cccc2cccnc12	120 to 124
Cc1ccc(C(=O)CCN(C)Cc2cccc3ccccc23)cc1	92 to 95
CC=C1CCC2C3CCC4CC(O)C(OCC)CC4(C)C3C(=NO)CC12C (stereo not drawn)	176 to 193
COc1ccc(C(=O)Cc2cc(OC)ccc2OC)c(Br)c1	76 to 79
O=C(NC1CCc2n[nH]cc2C1)[C@@H]1CCCN1C(=O)[C@@H](CC1CCCCC1)NS(=O)(=O)Cc1ccccc1 (stereo partly drawn)	106 to 109
CCOC(=O)c1cn(-c2ccccc2)nc1OCc1ccccc1	113 to 114
COC(=O)Cc1cscc1C(=O)O	121 to 122
CCn1cc(C(=O)Cl)c(=O)c2ccc(Cl)nc21	186 to 188
CN(C)CCCc1c[nH]c(-c2ccc(F)cc2)c1-c1ccncc1	177 to 179
C#CCn1cnc2c(N)nc3ccccc3c21	220 to 222
CCOC(=O)NNS(=O)(=O)c1ccc(C)cc1	105 to 106
O=c1c2c(oc3ncccc13)-c1ccccc1CCC2	186 to 190
CCS(=O)(=O)Cc1ccc(Oc2ccc(NC(C)=O)cc2)cc1	186
CC(C)(C)NCCOP1Oc2c(cc(C(C)(C)C)cc2C(C)(C)C)Cc2cc(C(C)(C)C)cc(C(C)(C)C)c2O1	189 to 192
COc1ccccc1N1CCc2c1c1cccc(C)c1[nH]c2=O	193 to 195
CCOC(=O)c1cnc2scc(C)n12	45
CC1=C(C(=O)CS(=O)(=O)NC(C)C)C(c2cccc([N+](=O)[O-])c2)C(C(=O)OC(C)C)=C(C)N1 (stereo not drawn)	119 to 121
COc1ccc(Cn2c(C)cc3cn[nH]c(=O)c32)cc1	212 to 213
NC(=O)c1cc(OCCNCC(O)c2ccco2)ccc1O (stereo not drawn)	169 to 171
CCn1cc(CC(=O)O)c(OCCCc2ccc(Cc3ccccn3)cc2OC(C)C)n1	97 to 98
CS(=O)(=O)N1CCC(C(=O)N(CCCN2CCC(Cc3ccc(F)cc3)CC2)c2ccc(Cl)c(Cl)c2)CC1	148 to 150
O=C(O)c1cc(-n2c(-c3ccccc3)cc3c2CCCC3)cc(Cl)c1O	223 to 225
Cc1ccc2cccc(OCc3c(Cl)ccc(C4OCCO4)c3Cl)c2n1	82 to 85
Cn1c(=O)c(C(=O)NC2CCCCC2)c(Cl)c2cc(O)ccc21	186

SMILES	melting point [°C]
CCOC(=O)C1=C(C)NC(C)=C(C(=O)OCC)C1c1ccccc1/C=C/C(=O)OC1CCCCC1	175 to 177
CCOC(=O)c1ccc(N=C(C)c2ccccc2)cc1	87
CCCCn1c(=O)[nH]c(=S)c2[nH]c(CC)nc21	206 to 207
NS(=O)(=O)c1ccc(-c2cc(-c3nc(-c4ccc(C(F)(F)F)cc4)cc(C(F)(F)F)n3)ccn2)s1	262
Cc1cc(C)nc(NC(N)=Nc2ccc(Cl)cc2)n1	203
O=c1ccn(-c2ccc(C(F)(F)F)cc2)nc1-c1ccnn1-c1ccccc1	237 to 238
COc1ccc(CCN2CCc3cc(O)c(OC)cc3C2)cc1	170 to 171
C[Si](C)(C)CC(C#N)CC(=O)O (stereo not drawn)	39 to 41
COC(=O)c1ccc2[nH]c(/C=C/c3ccc(OC)c(OC)c3)nc2c1	185 to 188
CCCCCCCCCCCCCCCCS(=O)(=O)Nc1cccc(C(C)=O)c1	95.5 to 100
NC(=O)C1CCc2ccccc21 (stereo not drawn)	151 to 154
O=c1[nH][nH]c(=O)n1-c1c(F)cc(F)cc1F	221 to 222
CCn1nc2c(N)nc3c(c2c1CC(C)C)CCCC3	206 to 207
Cc1cc(Oc2ncc(C(F)(F)F)cc2Cl)nn1C(=O)Nc1cccc(Cl)c1	129 to 130
CCOc1ccc2[nH]c(=O)n(-c3ccccn3)c2c1	205
Cc1cccc(C2NS(=O)(=O)c3ccccc32)c1 (single isomer, unassigned; (+))	158 to 159
CCOC(=O)c1cn(CC)c2cc(-c3cc(C)no3)ccc2c1=O	180 to 185
CC1(C)CC2(CC(C)(C)N1O)NC(=O)N(CC1CO1)C2=O (stereo not drawn)	154
COc1ccc2c3c1c(C)c(-c1ccc(O)cc1)n3CC(CCO)O2 (stereo not drawn)	190
OCC(O)COc1ccc(Br)cc1 (stereo not drawn)	69 to 75
FC(F)(F)c1cccc(N2CCC(N=Cc3cnc4ccccc4c3)=N2)c1	209 to 210
CC(=O)Nc1c(C(=O)c2cccc(NS(C)(=O)=O)c2)[nH]c2cc(Cl)ccc12	133 to 142
Cc1cc(C)c(Nc2nc(C)ccc2S(=O)(=O)c2ccc(OCc3ccccc3[N+](=O)[O-])cc2)c(C)c1	153 to 155
CCOC(=O)C=CCOc1ccc(C23CC4CC(CC(C4)C2)C3)cc1	91 to 93
CC1(C)Oc2cc(N)c(C#N)cc2[C@@H](N2CCCC2)[C@@H]1O (relative stereo)	158 to 160

SMILES	melting point [°C]
Cc1ccc(N2CCc3cc(Br)ccc32)c([N+](=O)[O-])c1	105 to 107
CCCCOC(=O)Cc1ccc(N2CCN(CCc3cc(C(C)(C)C)c(O)c(C(C)(C)C)c3)CC2)cc1	103 to 105
COc1ccc(-n2nc(Sc3ccc(S(C)=O)cc3)c(C)c(C#N)c2=O)cc1 (stereo not drawn)	176 to 178
CCCCCCCCCCCCOC(=O)C(N)CCCNC(=N)N (stereo not drawn)	125 to 130
CC(C)(C)CNC(=O)c1ccc(Br)c(C(=O)O)c1	176 to 179
O=C1OC(=Cc2ccccc2)c2ccc(-c3ccccc3)cc21	187
Cc1cc(Nc2c3ccccc3nc3ccccc23)ccc1N	256 to 257
COC(=O)N1CCC(c2n[nH]c3cc(Cl)ccc23)CC1	132 to 134
c1ccc(-c2cc3cnccc3[nH]2)cc1	276 to 278
Brc1cncc(OCc2ccccc2)c1	65 to 67
Cc1ccc(C(CC(=O)O)c2ccc(F)cc2)cc1 (stereo not drawn)	137 to 139
COc1ccccc1N1CCN(CCCCN2CCN(c3ccccc3)C2=O)CC1	94 to 95
CC(C)c1cccc(CCCn2ccnc2)c1NC(=O)CC1c2ccccc2Oc2ccccc21	194 to 195
CCOC(=O)CSc1nnsc1-c1ccc(C(C)(C)C)cc1	62.5 to 63.5
Cc1cc(C)c2ncc(NC(=O)Nc3cc(C(C)C)c(O)c(C(C)C)c3)c(-c3ccccc3Cl)c2c1	194 to 196
CCC(CC)COc1cnc(N)nc1N	173 to 174
NC(=O)c1ccccc1Sc1ccccc1[N+](=O)[O-]	166 to 167
CC(C)(CCC(=O)O)N(Cl)Cl	35 to 38
O=C(NCCCn1cncn1)Nc1cccc(C(F)(F)F)c1	97 to 99
O=C(O)CCC(=O)OCCc1ccccc1	60 to 62
N#CCN1C2CCC1CC(OC(c1ccccc1)c1ccccc1)C2 (stereo not drawn)	94 to 97
CS(=O)(=O)NC(=O)c1cccc(-c2ccc(Cl)c(C(=O)NCC34CC5CC(CC(C5)C3)C4)c2)n1	160 to 162
CN1CCN(c2sc(-c3nc4ccccc4c(=O)n3-c3ccc(Cl)cc3)cc2-c2ccc(S(C)(=O)=O)cc2)CC1	232 to 233
